Counter-ions that a name gives are not always drawn.
What was measured:
primary lymph node cells = assay: In vitro treatment of primary lymph node cells in FBS, Ki-67; assay type: cell-based, mouse; conditions: 8.75 mM in FBS, 37° C., 5 hours
Protocol: (§1) For studies of the effects of pH modifier on proliferating cells, primary thymocytes or lymph node cells (4×10^6 cells/ml) were incubated in FBS comprising 10% of saline or 87.5 mM HCl, HOAc or NaOH prepared in saline in 37° C. water bath for 5 hours before analyses. The tumor cells (2×10^6 cells/ml) were incubated in FBS comprising 10% saline or 87.5 mM HCl, HOAc, or NaOH prepared in saline in 37° C. water bath for 3-5 hours.
Cells were washed 3 times with PBS then stained with Zombie viability dyes at room temperature for 20 minutes. At the end of incubation, 10% volume of FBS was added to absorb excess Zombie dyes. After washes, the cells were stained with conjugated antibodies against surface antigens on ice. As specified in some experiments, the cells were subsequently stained with fluorochrome-conjugated Avidin. For Annexin V staining, cells were washed twice with plain PBS and once with Annexin V binging buffer (10 mM HEPES, pH7.4, 140 mM NaCl, 2.5 mM CaCl2)) after surface antigen staining, and incubated with fluorochrome-conjugated Annexin V in Annexin V binding buffer for 15 min at room temperature. The cells were washed twice in Annexin V binding buffer and resuspended in Annexin V binding buffer. 7-AAD was added to the cells before analyzed by flow cytometry. For Ki-67 and Foxp3 staining, lymphocytes (after Zombie dye and surface antigen staining) or tumor cells (without surface antigen staining) were fixed and permeabilized using Foxp3 staining buffer kit, then stained with PE-conjugated anti-mouse or human Ki-67 antibodies. (Biolegend, San Diego, Calif., USA). Stained and unstained cells were analyzed on Accuri C6 Flow Cytomer (Accuri Cytometers, Inc., Ann Arbor, Mich.), FACS Canto (BD Bioscience, San Jose, Calif., USA) and Attune™ cytometer (Invitrogen, Carlsbad, Calif.). Data analyses were carried out using FlowJo X.
Thus, to assess the full potentials of the pH modifiers, in vitro experiments were carried out, in which primary lymph node cells were treated with saline or saline plus the pH modifiers in 100% FBS in 37° C. water bath. Such in vitro culture systems were designed to be free of interference by pH buffering agents in common tissue culture system. The final concentration of the pH modifiers in the in vitro cultures was set to be 8.75 mM.

[1] = system: inflammatory cells in the BALF; assay: Asthma model: BALF cellularity and cell differentials; assay type: in vivo, Balb/c mice; conditions: i.t. HCl or HOAc, i.p. NaOH, every other day x3; day 3 after final challenge; saline 3.06×10^6
primary thymocytes = assay: In vitro treatment of thymocytes in FBS, Ki-67; assay type: cell-based, mouse; conditions: FBS with saline plus modifier, vs saline cultures
[2] = system: C57BL/6 mice fed high fat diet; assay: High fat diet obesity model; assay type: in vivo; conditions: for average reduction of intestinal length vs saline: entire intestines; for intestines vs saline (gross examination): from end of stomach to anus; for sizes of fat pads vs saline: gross; for loss of body weight: i.p. every other day, four doses, 3 days after final treatments, saline about 3%; for average fat/bodyweight ratio / fold reduction of fat/bodyweight ratio vs saline: i.p. four doses; for average fat/bodyweight ratio: saline 0.135
Protocol: The obesity model was similar to those previously described. (95, 96). Female C57BL/6 mice of 4 weeks age were acclimated at CRADL for 1 week. After the acclimation, mice were switched to Gamma-irradiated high fat diet (Research Diets, New Brunswick, N.J., USA) (60% calories from fat). After 4 weeks of high fat diet, the mice were switched back to regular diet, and treated with i.p. injection of saline or saline plus HCl or HOAc. The bodyweight of each mouse was recorded before each treatment, and at the end of the experiment.
In the obesity model of Example 10, after fed with high fat diet for 4 weeks, mice were weighed to record total body weight. The mice were switched to regular diet and randomly divided into groups to receive i.p. treatments with saline or saline plus HCl, HOAc or NaOH. The mice continued to receive i.p. treatments on every other day for 3 additional doses. Four days after the final treatments, mice were sacrificed, their total body weights were measured, fat pads, and internal organs were collected, weighed, and analyzed.
Obesity was induced in C57BL/6 mice by feeding young (5 weeks old) female mice with high fat diet for 4 weeks. The mice were then switched to normal diet and randomly divided into groups to receive i.p. treatments with saline or saline plus HCl, HOAc or NaOH every other day for a total of four doses. The mice were analyzed 3 days after the final treatments.

[3] = system: proliferating cells in the intestinal villi; assay: Ki-67 immunohistochemistry of intestines; assay type: in vivo, mice; conditions: i.p. x3, one day after third dose
Protocol: (97). Briefly, the tissue sections were first deparaffinized and rehydrated.
Mice were i.p. treated with saline or saline plus HCl, HOAc or NaOH every other day for a total of 3 doses. One day after the third dose, mice were sacrificed, and tissue sections of the intestines were analyzed by immunohistochemistry staining of Ki-67 with hematoxylin counter staining.

Raji cells = assay: In vitro treatment of Raji tumor cells in FBS
Protocol: Jurkat and Raji tumor cell lines were maintained in Complete RPMI-1640 Medium (RPMI-1640 plus 1× GlutaMAX, 100 U/ml Pen-Strep (Gibco Life Technologies, Grand Island, N.Y., USA), and 5% heat-inactivated fetal bovine serum (FBS) (Atlanta Biologicals, Flowery Branch, Ga., USA)) at 37° C. and 5% CO2. The tumor cells were washed 3 times with saline plus 1% FBS before in vitro treatments with saline or saline plus pH modifiers.
as §1
Cells were washed 3 times with PBS then stained with Zombie viability dyes at room temperature for 20 minutes. At the end of incubation, 10% volume of FBS was added to absorb excess Zombie dyes. […] 7-AAD was added to the cells before analyzed by flow cytometry. […] Stained and unstained cells were analyzed on Accuri C6 Flow Cytomer (Accuri Cytometers, Inc., Ann Arbor, Mich.), FACS Canto (BD Bioscience, San Jose, Calif., USA) and Attune™ cytometer (Invitrogen, Carlsbad, Calif.). […]

SMILES | percentages of Ki-67+ cells in CD4 T cells and B cells vs saline (primary lymph node cells) | percentages of Ki-67+ cells in total lymphocytes and CD8 T cells vs saline (primary lymph node cells) | total inflammatory cells in the BALF (average) [1] | Ki-67+ cells in thymocytes after in vitro treatment (primary thymocytes) | average reduction of intestinal length vs saline [2] | intestines vs saline (gross examination) [2] | sizes of fat pads vs saline [2] | loss of body weight [2] | average fat/bodyweight ratio [2] | Ki-67+ cells in the intestinal villi (IHC) [3] | Ki-67 staining intensity in intestines [3] | viability (live cells) of Raji cells (Raji cells; human, 8.75 mM) | Ki-67+ cells in live total lymphocytes, CD4, CD8 T cells and B cells (primary lymph node cells) | fold reduction of fat/bodyweight ratio vs saline [2] | viability (live cells) of Raji cells (Raji cells; FBS with 10% of 87.5 mM modifier, 37° C., 3-5 hours, saline 89.4%)
[Na+].[OH-] [NaOH, sodium hydroxide] | nearly tripled | more than tripled | 2.18×10^6 per mouse | higher percentages of Ki-67^+ cells | about 2% | only slightly shortened | somewhat reduced | about 17% | 0.106 | more Ki-67^+ cells in the intestinal villi of saline- or NaOH-treated mice than the HCl- or HOAc-treated mice | strongest | – | – | – | –
CC(=O)O [HOAc, acetic acid] | – | – | 9.01×10^5 per mouse | almost no Ki-67^+ cells | ~12% | drastically shortened | much smaller | ~15% | 0.045 | more Ki-67^+ cells in the intestinal villi of saline- or NaOH-treated mice than the HCl- or HOAc-treated mice | stronger than those of the HCl- or HOAc-treated mice | 48.9% | almost eliminated all Ki-67^+ | 3 fold | –
Cl [HCl, hydrochloric acid] | – | – | 1.07×10^6 per mouse | almost no Ki-67^+ cells | about 31% | drastically shortened | much smaller | about 25% | 0.027 | more Ki-67^+ cells in the intestinal villi of saline- or NaOH-treated mice than the HCl- or HOAc-treated mice | stronger than those of the HCl- or HOAc-treated mice | – | almost eliminated all Ki-67^+ | 5 fold | 49.2%

— patent US20230135127A1, “COMPOSITIONS AND METHODS FOR DISEASE TREATMENT AND PREVENTION BY PH MODIFIERS AND/OR CELL PROLIFERATION INHIBITORS” (priority 2021, published 2023)
